From ChEMBL document CHEMBL3734667 (Bioorg Med Chem, 2015)
pEC50: −log10 of the molar value.

How the values were obtained:
[1] = Selectivity index, ratio of CC50 for african green monkey Vero76 cells to EC50 for human RSV; parameters: species or system human respiratory syncytial virus, Vero 76
[2] = tested on: Vesicular stomatitis virus; experiment: Antiviral activity against VSV; type: functional, organism-based
[3] = Cytotoxicity against human MT4 cells assessed as cell viability after 96 hrs by MTT assay; type: cell-based
[4] = Cytotoxicity against MDBK cells assessed as cell viability after 48 to 96 hrs by MTT assay; type: cell-based, Bos taurus; conditions: cattle
[5] = Selectivity index, ratio of CC50 for african green monkey Vero76 cells to EC50 for human CVB5; parameters: species or system Coxsackievirus B5, Vero 76
Yellow fever virus = experiment: Antiviral activity against YFV infected in BHK-21 cells assessed as inhibition of virus-induced cytopathogenicity after 3 to 4 days by MTT assay; type: functional, organism-based
Vaccinia virus = experiment: Antiviral activity against Vaccinia virus; type: functional, organism-based; conditions: Orthopoxvirus vaccinia
[6] = Cytotoxicity against african green monkey Vero 76 cells assessed as cell viability after 48 to 96 hrs by crystal violet staining method; type: cell-based; conditions: chlorocebus sabaeus
[7] = tested on: Bovine viral diarrhea virus 1; experiment: Antiviral activity against BVDV infected in MDBK cells assessed as inhibition of virus-induced cytopathogenicity after 3 to 4 days by MTT assay; type: functional, organism-based; conditions: Bovine viral diarrhea virus isolates and strains
Coxsackievirus B5 = experiment: Antiviral activity against human CVB5 infected in african green monkey Vero76 cells assessed as inhibition of virus-induced cytopathogenicity after 3 days by plaque reduction assay; type: functional, organism-based; conditions: Enterovirus B, Vero 76, 72 h
[8] = tested on: Human immunodeficiency virus 1; experiment: Antiviral activity against HIV-1 infected in MT4 cells assessed as inhibition of virus-induced cytopathogenicity after 4 days by MTT assay; type: functional, organism-based; conditions: Human immunodeficiency virus 1, MT4, 96 h
Poliovirus 1 = experiment: Antiviral activity against Human poliovirus 1 Sabin infected in african green monkey Vero76 cells assessed as inhibition of virus-induced cytopathogenicity by plaque reduction assay; type: functional, organism-based; conditions: Enterovirus C, Vero 76
[9] = Cytotoxicity against BHK cells assessed as cell viability after 48 to 96 hrs by MTT assay; type: cell-based, Mesocricetus auratus; conditions: hamster
Human orthopneumovirus = experiment: Antiviral activity against human RSV infected in african green monkey Vero76 cells assessed as inhibition of virus-induced cytopathogenicity after 5 days by plaque reduction assay; type: functional, organism-based; conditions: human respiratory syncytial virus, Vero 76, 120 h
[10] = Selectivity index, ratio of CC50 for MDBK cells to EC50 for BVDV; parameters: species or system Bovine viral diarrhea virus 1
[11] = tested on: Mammalian orthoreovirus 1; experiment: Antiviral activity against Reo-1 virus infected in BHK-21 cells assessed as inhibition of virus-induced cytopathogenicity after 3 to 4 days by MTT assay; type: functional, cell-based; conditions: Mammalian orthoreovirus 1, BHK-21
Human alphaherpesvirus 1 = experiment: Antiviral activity against HSV1; type: functional, organism-based

| Structure (SMILES) | Ratio CC50/EC50 [1] | pEC50 [2] | CC50 at 96 h [3] [µM] | CC50 [4] [µM] | Ratio CC50/EC50 [5] | pEC50 (Yellow fever virus) | pEC50 (Vaccinia virus) | CC50 [6] [µM] | pEC50 [7] | pEC50 (Coxsackievirus B5) | pEC50 [8] | pEC50 (Poliovirus 1) | CC50 [9] [µM] | pEC50 (Human orthopneumovirus) | Ratio CC50/EC50 [10] | pEC50 [11] | pEC50 (Human alphaherpesvirus 1) |
| --- | --- | --- | --- | --- | --- | --- | --- | --- | --- | --- | --- | --- | --- | --- | --- | --- | --- |
| Cc1ccc2nn(-c3ccc(OCC(C)(C)C(=O)O)cc3)nc2c1 | 4 | < 4.00 | ≥ 100 | 69 | 12 | < 4.00 | < 4.00 | 60 | < 4.00 | 5.30 | < 4.00 | < 4.00 | ≥ 100 | 4.82 |  |  |  |
| Cc1ccc(C)c(OCCCC(C)(C)C(=O)O)c1 [GEMFIBROZIL] |  |  | > 100 | > 100 |  | < 4.00 |  | > 100 | 4.05 | < 4.00 |  | < 4.00 | > 100 | < 4.00 | >1.11 |  |  |
| COc1ccccc1N1CCN(CCCOc2ccc(-n3nc4ccc(C(F)(F)F)cc4n3)cc2)CC1 |  | < 4.00 | 100 | > 100 | 1.89 | < 4.00 | < 4.00 | 100 | < 4.00 | 4.28 | < 4.00 | < 4.00 | > 100 | < 4.00 |  | < 4.00 |  |
| CC(C)(CCCOc1ccc(-n2nc3ccc(Cl)cc3n2)cc1)C(=O)O | 7.5 | < 4.00 | 51 | 32 | 31.43 | < 4.00 | < 4.00 | 15 | < 4.00 | 6.15 | < 4.00 | < 4.00 | 16 | 5.70 |  |  |  |
| CN(C)c1cccc(C(=O)OCCCn2nc3ccccc3n2)c1 |  | < 4.00 | > 100 | > 100 | >1.37 | < 4.00 | < 4.00 | > 100 | < 4.00 | 4.14 | < 4.00 |  | > 100 | < 4.00 |  |  |  |
| COc1ccc2nn(-c3ccc(OC(C)(C)C(=O)O)cc3)nc2c1 | 4.5 | < 4.00 | > 100 | ≥ 100 |  | < 4.00 | < 4.00 | 90 | < 4.00 | < 4.00 | < 4.00 | < 4.00 | > 100 | 4.70 |  |  |  |
| Clc1c(Cl)c(Cl)c2nn(C3CCCO3)nc2c1Cl (stereo not drawn) |  | < 4.00 | > 100 | ≥ 100 |  | < 4.00 |  | 12 | 4.92 |  | < 4.00 | < 4.00 | 30 |  | 8.33 | < 4.00 | < 4.00 |
| [O-][n+]1c2cc(C(F)(F)F)ccc2nn1-c1ccc(O)cc1 | >2.5 | < 4.00 | > 100 | 72 | >1.33 | < 4.00 | < 4.00 | > 100 | < 4.00 | 4.12 | < 4.00 | < 4.00 | > 100 | 4.40 |  | < 4.00 |  |
| CC(C)(Oc1ccc(-n2nc3ccccc3n2)cc1)C(=O)O | 1.25 | < 4.00 | > 100 | > 100 |  | < 4.00 | < 4.00 | ≥ 100 | < 4.00 | < 4.00 | < 4.00 | < 4.00 | > 100 | 4.10 |  |  |  |
| NC(=O)c1ncn([C@@H]2O[C@H](CO)[C@@H](O)[C@H]2O)n1 [RIBAVIRIN] | >14.3 | < 4.00 |  | > 100 |  | < 4.00 | < 4.00 | > 100 |  | < 4.00 |  | < 4.00 | > 100 | 5.15 |  | < 4.00 | < 4.00 |
| COc1c(C)c2c(c(O)c1C/C=C(\C)CCC(=O)O)C(=O)OC2 [MYCOPHENOLIC ACID] | 33.3 |  |  |  |  | < 4.00 | 5.70 |  | < 4.00 | < 4.00 |  | < 4.00 | > 100 | 6.22 |  | < 4.00 | < 4.00 |
| Cc1ccc2nn(-c3ccc(OC(C)(C)C(=O)O)cc3)nc2c1 | 4.32 | < 4.00 | > 100 | > 100 |  | < 4.00 | < 4.00 | 95 | 4.05 | < 4.00 | < 4.00 | < 4.00 | > 100 | 4.66 | >1.11 |  |  |
| CC(CC(=O)O)n1nc2c(Cl)c(Cl)c(Cl)c(Cl)c2n1 (stereo not drawn) | 3.12 | < 4.00 | > 100 | 70 |  | < 4.00 | < 4.00 | 25 | 4.31 | 4.60 | < 4.00 |  | 33 | 5.10 | 1.43 |  |  |
| CC(C)(Oc1ccc(-n2nc3ccc(Cl)cc3n2)cc1)C(=O)O | 2.8 | < 4.00 | > 100 | ≥ 100 |  | < 4.00 | < 4.00 | 70 | < 4.00 | < 4.00 | < 4.00 | < 4.00 | 75 | 4.60 |  |  |  |
| COc1ccc2nn(-c3ccc(OCCCC(C)(C)C(=O)O)cc3)nc2c1 |  | < 4.00 | 28 | > 100 | 10 | < 4.00 | < 4.00 | 20 | 4.36 | 5.70 | < 4.00 | < 4.00 | 50 | < 4.00 | 2.27 |  |  |
